# Experimental data published in US20160303251A1, “CONJUGATES OF GARFTASE INHIBITORS” (ENDOCYTE, INC., priority 2015, published 2016).
# Experiments:
# [1] = tested on: subcutaneous KB tumors; test: Antitumor activity in KB tumor model; assay type: in vivo, mice; settings: for PR, complete responses or cure: 1 μmol/kg
# Protocol: METHOD. Inhibition of Tumor Growth in Mice. Four to seven week-old mice (Balb/c or nu/nu strains) are purchased from Harlan Sprague Dawley, Inc. (Indianapolis, Ind.). […] For tumor cell inoculation, 1×10^6 M109 cells (a syngeneic lung carcinoma) in Balb/c strain, or 1×10^6 KB cells in nu/nu strain, in 100 μL are injected in the subcutis of the dorsal medial area (right axilla). Tumors are measured in two perpendicular directions every 2-3 days using a caliper, and their volumes are calculated as 0.5×L×W^2, where L=measurement of longest axis in mm and W=measurement of axis perpendicular to L in mm.
# Dosing is initiated when the s.c. tumors have an average volume between 50-100 […] (t0), typically 8 days post tumor inoculation (PTI) for KB tumors, and 11 days PTI for M109 tumors. Test animals (5/group) are injected i.v., generally three times a week (TIW), for 3 weeks with varying doses, such as with 1 μmol/kg to 5 μmol/kg, of the conjugate or with an equivalent dose volume of PBS (control), unless otherwise indicated. Dosing solutions are prepared fresh each day in PBS and administered through the lateral tail vein of the mice.
# Female Balb/c nu/nu mice were fed ad libitum with folate-deficient chow (Harlan diet #TD01013) for the duration of the experiment. KB tumor cells were inoculated subcutaneously at the right flank of each mouse. Mice were dosed after the tumors have reached a range of 107-152 mm^3 through the lateral tail vein under sterile conditions in a volume of 200 μL of phosphate-buffered saline (PBS).
# Growth of each s.c. tumor was followed by measuring the tumor two times per week. Tumors were measured in two perpendicular directions using Vernier calipers, and their volumes were calculated as 0.5×L×W^2, where L=measurement of longest axis in mm and W=measurement of axis perpendicular to L in mm.
# [2] = tested on: KB cells; test: In vitro activity in KB cells (3H-thymidine incorporation); assay type: cell-based, human; settings: 2 hr pulse at 37° C., chase up to 70 hr
# Protocol: Cells were seeded in 24-well Falcon plates and allowed to form nearly confluent monolayers overnight. After one rinse with 1 mL of fresh FFRPMI/HIFCS, each well received 1 mL of medium containing increasing concentrations of test agent (3 wells per sample). Cells were pulsed with targeted agents for 2 hr at 37° C., rinsed 4 times with 0.5 mL of medium, and then chased in 1 mL of fresh medium up to 70 hr. Cells were treated with non-targeted agent ECO347 for a continuous 72 h. Spent medium was aspirated from all wells and replaced with fresh medium containing 5 μCi/mL ^3H-thymidine. After a further 2 hr 37° C. incubation, cells were washed 3 times with 0.5 mL of PBS and then treated with 0.5 mL of ice-cold 5% trichloroacetic acid per well. After 15 min, the trichloroacetic acid. was aspirated and the cell material solubilized by the addition of 0.5 mL of 0.25 N sodium hydroxide for 15 min. Four hundred and fifty microliters of each solubilized sample were transferred to scintillation vials containing 3 mL of Ecolume scintillation cocktail and then counted in a liquid scintillation counter. Final tabulated results were expressed as the percentage of ^3H-thymidine incorporation relative to untreated controls and IC50 values calculated using Graphpad Prism software.
# [3] = 0.5 μmol/kg (EC1953 printed 0.5 mol/kg), TIW×2 wk, n=5
# [4] = 1 μmol/kg (EC1953, EC 2014 printed 1 mol/kg), TIW×2 wk, n=5
# [5] = mice having subcutaneous KB tumors
molecule,measurement,setting,value
tubulysin B-monohydrazide [reference compound],"PR, complete responses or cure","[1]; TIW×2 wk, n=5","none of the treatment groups showed a PR, complete responses, or cure"
"Nc1nc2[nH]c(CCCc3ccc(C(=O)N[C@@H](CCC(=O)O)C(=O)O)s3)cc2c(=O)[nH]1 [AG94, reference compound]",IC50,[2]; Homo sapiens,2.5 nM
same,"PR, complete responses or cure","[1]; TIW×2 wk, n=5","none of the treatment groups showed a PR, complete responses, or cure"
CCCC(=O)OCN(C(=O)[C@@H](NC(=O)[C@H]1CCCCN1C)C(C)CC)[C@H](C[C@@H](OC(C)=O)c1nc(C(=O)N[C@@H](Cc2ccc(O)cc2)C[C@H](C)C(=O)NNC(=O)OCCSSCCC(=O)N[C@@H](CCC(=O)NC[C@H](O)[C@@H](O)[C@H](O)[C@H](O)CO)C(=O)N[C@@H](CCC(=O)O)C(=O)N[C@@H](CCC(=O)NC[C@H](O)[C@@H](O)[C@H](O)[C@H](O)CO)C(=O)N[C@@H](CCC(=O)O)C(=O)N[C@@H](CCC(=O)NC[C@H](O)[C@@H](O)[C@H](O)[C@H](O)CO)C(=O)N[C@@H](CSSCCOC(=O)CC[C@H](NC(=O)c2ccc(CCCc3cc4c(=O)[nH]c(N)nc4[nH]3)s2)C(=O)O)C(=O)O)cs1)C(C)C (some centres unmarked) [EC1953],IC50,[2],0.4 nM
same,"CR (complete responses) of {PR, CR, cure}",[1]; [3],1
same,"PR (partial responses) of {PR, CR, cure}",[1]; [3],3
same,"cure of {PR, CR, cure}",[1]; [4],5
same,"cure of {PR, CR, cure}","[1]; 2 umol/kg, q5d×2 wk (independent dosing protocol)",5
same,"cure of {PR, CR, cure}","[1]; 2 μmol/kg, single dose, n=5",2
same,"cures, observation period extended for 90 days","[1]; 1 mol/kg (so in the source), TIW×2 wk",5/5
same,"cures, observation period extended for 90 days","[1]; 2 mol/kg (so in the source), TIW×2 wk",5/5
same,"cure of {PR, CR, cure}","[1]; 2 mol/kg (so in the source), TIW×2 wk, n=5",5
same,dose response,[1]; [5],shows a dose response
same,efficacy compared to comparator,[1]; [5],more efficacious than the comparator folate-tubulysin conjugate
"Nc1nc2[nH]c(CCCCCCCC(=O)N[C@@H](CCC(=O)O)C(=O)O)cc2c(=O)[nH]1 [AG147, reference compound]",IC50,[2]; Homo sapiens,1.2 nM
CCCC(=O)OCN(C(=O)[C@@H](NC(=O)[C@H]1CCCCN1C)C(C)CC)[C@H](C[C@@H](OC(C)=O)c1nc(C(=O)N[C@@H](Cc2ccc(O)cc2)C[C@H](C)C(=O)NNC(=O)OCCSSCCC(=O)N[C@@H](CCC(=O)NC[C@H](O)[C@@H](O)[C@H](O)[C@H](O)CO)C(=O)N[C@@H](CCC(=O)O)C(=O)N[C@@H](CCC(=O)NC[C@H](O)[C@@H](O)[C@H](O)[C@H](O)CO)C(=O)N[C@@H](CCC(=O)O)C(=O)N[C@@H](CCC(=O)NC[C@H](O)[C@@H](O)[C@H](O)[C@H](O)CO)C(=O)N[C@@H](CSSCCOC(=O)CC[C@H](NC(=O)CCCCCCCc2cc3c(=O)[nH]c(N)nc3[nH]2)C(=O)O)C(=O)O)cs1)C(C)C (some centres unmarked) [EC2014],IC50,[2],0.34 nM
same,"cure of {PR, CR, cure}",[1]; [4],5
